Laboratory results: patent publication US20230201217A1 (priority 2019, published 2023)
Several values for one entry are separate records, joined by “and”; a condition that tells them apart may be missing. Equal values may be shown once.

Legend:
[1] = test system: human peripheral blood lymphocytes (HPBL); test: In vitro chromosome aberration test; type: cell-based
Experimental: Based on precipitates observed in the range-finding assay, concentrations used during the definitive chromosome aberration assay were a) 7.5, 15, 25, 50, 100, and 150 μg/mL in the 3-hour treatments with and without metabolic activation, and b) 1.0, 15, 25, 30, 35, 40, 45, 50, 55, 60, and 75 μg/mL in the 22-hour treatment without metabolic activation. These cultures along with the vehicle and one concentration of positive control for each treatment condition were analyzed for aberrations. Structural chromosome aberrations were scored for each concentration from a total of 200 metaphase cells (when possible) or ≥30 aberrant cells. Numerical aberrations were evaluated in 400 metaphase cells per concentration.

mice = test: Single-dose oral toxicity; type: in vivo, mouse
Experimental: (§1) Single doses up to 300-400 mg/kg and 800 mg/kg appeared to be generally well tolerated in monkeys and rats, respectively (one monkey treated with 400 mg/kg died in the 2-week GLP study on Day 1 of dosing). […] In mice, mortality was consistently seen following single doses 150 mg/kg. Preliminary 5-day repeat-dose range-finding studies were conducted in mice, rats and monkeys. The definitive 14-day studies in mouse and monkey yielded generally similar results to those observed in the 5-day studies.

male Sprague Dawley rats = test: Modified Irwin test, definitive GLP study, male rats; type: in vivo, rat
Experimental: Only male rats were utilized in the assay, as no significant sex-specific effects have been noted in prior toxicology studies.
The dose volume for all groups was 20 mL/kg. Observations for the Irwin test were performed pre-dose (on the day of dosing) and at approximately (±5 minutes) 30, 90, 150, and 240 minutes post-dosing. Body temperature was measured and recorded during each Irwin observation period.

CYP2C19 = CYP2C19 (Homo sapiens, UniProt P33261); conditions: recombinant enzyme
CYP2C19, sequence (P33261 whole entry): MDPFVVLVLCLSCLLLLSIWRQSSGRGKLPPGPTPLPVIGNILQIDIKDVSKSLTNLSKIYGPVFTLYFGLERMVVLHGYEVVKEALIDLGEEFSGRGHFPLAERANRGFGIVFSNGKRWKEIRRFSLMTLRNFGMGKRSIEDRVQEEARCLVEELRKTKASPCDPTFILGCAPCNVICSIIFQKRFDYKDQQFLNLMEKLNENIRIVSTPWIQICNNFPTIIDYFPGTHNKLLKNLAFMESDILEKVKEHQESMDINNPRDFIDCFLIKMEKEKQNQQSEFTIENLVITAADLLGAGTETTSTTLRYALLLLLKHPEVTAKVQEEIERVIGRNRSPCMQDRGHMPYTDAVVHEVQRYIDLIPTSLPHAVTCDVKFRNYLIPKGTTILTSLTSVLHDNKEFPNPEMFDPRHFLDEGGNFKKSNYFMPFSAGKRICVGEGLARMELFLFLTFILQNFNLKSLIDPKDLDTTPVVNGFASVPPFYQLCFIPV
Experimental: (§4) Control incubations were performed for each assay with appropriate positive inhibitory controls.

Sprague Dawley rats = test: Modified Irwin test, pilot dose finding study, female rats; type: in vivo, rat; conditions: single oral dose 30-800 mg/kg
Experimental: Under the conditions of this study, the no-observed-effect level (NOEL) and no-observed-adverse-effect level (NOAEL) were considered to be 90 mg/kg and 400 mg/kg, respectively.

[2] = test system: rats trained to self-administer cocaine; conditions: 10-40 mg/kg i.p., cited from earlier work
[3] = test system: rats trained to self-administer cocaine; test: Rat cocaine self-administration, oral 18-MC HCl; conditions: for inhibition of cocaine self-administration: 1 hour post-dose
Experimental: The relationship between in vivo efficacy and plasma drug exposure was investigated in rats trained to self-administer cocaine. […] Blood samples were collected immediately after the one hour session in the operant chamber from the arterial catheter. […] Significant differences from vehicle-treated animals were either p<0.01 (indicated as **) or p<0.05 (indicated as *).
Significant difference from vehicle-treated group (0 mg/kg on X axis) was p<0.01 (indicated as **) by one-way ANOVA.
Significant difference from baseline responding was p<0.01 (as indicated by **). […] Blood samples were collected from animals immediately after their cocaine self-administration at approximately 2 hours post dose in the first day of dosing (Day 0), and the last day of dosing (Day 4).

rats = test: Single-dose oral toxicity; type: in vivo, rat
Experimental: as §1

Pharmacokinetics in rats = type: in vivo, rat
Experimental: (§2) 18-MC is rapidly absorbed and distributed into the brain and fat tissues in rats dosed with 40 mg/kg p.o. or i.p. The estimated volume of distribution is 8 L/kg. 18-MC levels in fat were 4.2 μM and 2.5 μM at 2 hours and 24 hours, respectively. […] On oral administration, it appears that the major metabolites are either M4 or M5, depending on the animal species tested. M4 and M5 are the primary circulating drug species because they are present at proportions greater than 18-MC. […] In the animal species tested its half-life is less than 2 hours at lower doses. At high doses a long elimination phase is evident (ranging from 9 to 20 hours in rats). 18-MC is highly protein bound (95-98%).

CYP1A2 = CYP1A2 (Homo sapiens, UniProt P05177); conditions: recombinant enzyme
CYP1A2, sequence (P05177 whole entry): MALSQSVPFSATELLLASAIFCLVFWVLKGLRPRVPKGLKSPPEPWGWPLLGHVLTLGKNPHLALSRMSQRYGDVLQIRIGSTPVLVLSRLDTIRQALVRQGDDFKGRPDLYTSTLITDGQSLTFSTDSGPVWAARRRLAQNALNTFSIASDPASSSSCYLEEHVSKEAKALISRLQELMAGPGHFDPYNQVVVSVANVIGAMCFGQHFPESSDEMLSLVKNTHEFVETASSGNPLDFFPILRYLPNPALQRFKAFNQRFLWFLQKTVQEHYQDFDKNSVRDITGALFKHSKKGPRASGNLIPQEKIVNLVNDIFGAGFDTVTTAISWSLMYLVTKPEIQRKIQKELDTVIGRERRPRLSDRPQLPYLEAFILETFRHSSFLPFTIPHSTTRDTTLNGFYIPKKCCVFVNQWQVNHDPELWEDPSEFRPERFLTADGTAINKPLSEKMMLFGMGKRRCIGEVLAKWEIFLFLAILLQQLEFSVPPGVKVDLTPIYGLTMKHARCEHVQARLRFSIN
Experimental: as §4

plasma protein = test: Plasma protein binding, all species tested; type: in vitro ADME
Experimental: (§3) In all the species tested in pre-clinical studies, 18-MC is rapidly absorbed following oral administration with Tmax occurring in less than 0.5 hours following oral administration. After oral administration, the elimination of 18-MC is multi-compartmental. In plasma, 18-MC is highly protein bound (92% to 98%). 18-MC is also rapidly and extensively metabolized, presumably by first pass metabolism. At least […] different metabolites have been detected both in vitro and in vivo, further described below (M1-M9, P1-P3). The major metabolites (those with exposure greater than 10% of the total drug related material) appear to change with the dose and duration of dosing. Major metabolites include M2, M4, M5, M8, M9 and P2 depending on the animal species tested, and the dose and duration of dosing.
There is no information on the protein binding of any of the metabolites.

CYP2E1 = CYP2E1 (Homo sapiens, UniProt P05181); conditions: recombinant enzyme
CYP2E1, sequence (P05181 whole entry): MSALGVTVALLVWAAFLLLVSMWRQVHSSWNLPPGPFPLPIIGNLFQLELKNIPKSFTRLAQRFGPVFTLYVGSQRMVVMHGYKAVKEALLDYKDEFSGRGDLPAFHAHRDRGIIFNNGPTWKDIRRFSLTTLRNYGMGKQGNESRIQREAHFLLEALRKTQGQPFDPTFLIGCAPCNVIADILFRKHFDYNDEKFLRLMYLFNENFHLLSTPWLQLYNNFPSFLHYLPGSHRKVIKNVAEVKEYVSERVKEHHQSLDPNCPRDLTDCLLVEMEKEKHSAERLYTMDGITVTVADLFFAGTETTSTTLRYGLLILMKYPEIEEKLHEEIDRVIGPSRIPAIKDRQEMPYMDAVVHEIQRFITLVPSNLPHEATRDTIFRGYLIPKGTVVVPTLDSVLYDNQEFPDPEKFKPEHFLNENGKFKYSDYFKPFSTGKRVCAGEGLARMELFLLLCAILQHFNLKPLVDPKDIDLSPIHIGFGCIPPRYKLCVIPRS
Experimental: as §4

[4] = Toxicokinetics, 14-day study in cynomolgus monkeys; type: in vivo, cynomolgus monkey
Experimental: The animals received 400 mg/kg on Day 1 and thereafter 300 mg/kg/day. The relative concentrations of the metabolites and 18-MC were determined by the peak-heights by UPLC/MS/MS method. Major metabolites were identified as M5>>M2>>P2. Metabolite M4 was on the borderline to be considered a major metabolite. The parent 18-MC exposure was less than 3% of the total drug and metabolite exposure.
Assessments of neurobehavioral effects and general toxicity were based on mortality, functional observational battery (FOB) evaluations, clinical observations, body weight, and body temperature; ophthalmoscopic, electrocardiographic examinations; and anatomic and clinical pathology. The anatomical pathology evaluations included histopathology of a full list of tissues from all animals and a comprehensive evaluation of the central nervous system (including selected peripheral nerves) utilizing whole body perfusion and special stains. Bone marrow smears from all animals were evaluated microscopically. Complete differentials and myeloid-erythroid (ME) ratios were performed. Toxicokinetic assessment was conducted for the test article and metabolites.
Systemic exposure to […] was independent of sex. […] The following discussion is therefore based on data for males and females combined.

[5] = Pre-clinical pharmacokinetics, all species tested; type: in vivo
Experimental: as §3
as §2, with “At high doses a long elimination phase is evident (ranging from 9 to 20 hours in rats). 18-MC is highly protein bound (95-98%).” left out

COCCC1CC2CN3CCc4c([nH]c5ccccc45)C(C(=O)OC)(C2)C13.Cl (stereo not shown) [18-MC HCl, 18-Methoxycoronaridine hydrochloride]
structural chromosome aberrations ([1]; with metabolic activation): positive | structural chromosome aberrations ([1]; without metabolic activation): negative | single doses with mortality consistently seen (mice): 150 mg/kg | Irwin: Increased pupil diameter, occurrence(s)/No. of males (male Sprague Dawley rats; 200 mg/kg): 1/6 | Irwin: Increased touch response, occurrence(s)/No. of males (male Sprague Dawley rats; 200 mg/kg): 1/6 | mean decrease in body temperature from pre-dose (male Sprague Dawley rats; 200 mg/kg p.o.): up to 1.5 °C | Irwin: Abnormal gait (walking low on limbs), occurrence(s)/No. of males (male Sprague Dawley rats; 400 mg/kg): 1/6 | Irwin: Decreased alertness, occurrence(s)/No. of males (observation period, min) (male Sprague Dawley rats; 400 mg/kg): 1/6 | Irwin: Increased pupil diameter, occurrence(s)/No. of males (male Sprague Dawley rats; 400 mg/kg): 1/6 | mean decrease in body temperature from pre-dose (male Sprague Dawley rats; 400 mg/kg p.o.): ≤ 2.3 °C | Irwin: Abnormal gait (walking low on limbs), occurrence(s)/No. of males (male Sprague Dawley rats; 600 mg/kg): 1/6 | Irwin: Diarrhea, occurrence(s)/No. of males (male Sprague Dawley rats; 600 mg/kg): 1/6 | mean decrease in body temperature from pre-dose (male Sprague Dawley rats; 600 mg/kg p.o.): ≤ 2.3 °C | Irwin: Abnormal gait (waddling), occurrence(s)/No. of males (observation period, min) (male Sprague Dawley rats; 600 mg/kg, hydrochloride): 1/6 and 2/6 and 3/6 and 4/6 | IC50 (CYP2C19): < 1.5 µM | no-observed-adverse-effect level (NOAEL) (Sprague Dawley rats): 400 mg/kg | no-observed-effect level (NOEL) (Sprague Dawley rats): 90 mg/kg | responding for cocaine ([2]; 15 minutes prior to session): significantly decreased | responding for water [2]: no effect | inhibition of cocaine self-administration ([3]; 120 mg/kg p.o.): 50% | inhibition of cocaine self-administration on repeated dosing ([3]; 600 mg/kg/day, 5 consecutive days): did not result in greater inhibition | inhibition of cocaine self-administration ([3]; 800 mg/kg p.o.): 82% | single dose generally well tolerated (rats): ≤ 800 mg/kg | oral bioavailability (Pharmacokinetics in rats; 60 mg/kg): about 8%

COCC[C@H]1CC2CN3CCc4c([nH]c5ccccc45)[C@](C(=O)OC)(C2)[C@H]13 [18-MC, 18-methoxycoronaridine]
IC50 (CYP1A2): > 100 µM | IC50 (CYP2C19): 4.9 µM | no-observed-adverse-effect level (NOAEL) (Sprague Dawley rats): 400 mg/kg | no-observed-effect level (NOEL) (Sprague Dawley rats): 90 mg/kg | protein bound in plasma (plasma protein): 95-98% and 92-98% | IC50 (CYP2E1): 28 µM | AUC ([4]; Day 14, 300 mg/kg 18-MC HCl): 1210 ng·h/mL | Cmax ([4]; Day 14, 300 mg/kg 18-MC HCl): 144 ng/mL | AUC(0-24) ([4]; Day 14, 400 mg/kg 1 day then 300 mg/kg/day, averaged across the sexes): 144000 ng·h/mL | time of median peak plasma concentration ([4]; all dose groups, Days 1 and 14): ≤ 1 h | half-life ([5]; animal species tested, lower doses, oral): less than 2 hours | Tmax ([5]; oral administration, all the species tested): less than 0.5 hours | estimated volume of distribution (Pharmacokinetics in rats; 40 mg/kg p.o. or i.p.): 8 L/kg | oral bioavailability for total drug substance (AUC of 18-MC and its metabolites) (Pharmacokinetics in rats; 60 mg/kg): about 25% | 18-MC level in fat (Pharmacokinetics in rats; 2 hours): 4.2 µM | 18-MC level in fat (Pharmacokinetics in rats; 24 hours): 2.5 µM
